From ChEMBL document CHEMBL3621060, “Synthesis and anticancer activities of novel 8-azapurine carbocyclic nucleoside hydrazones” (Bioorg Med Chem Lett, 2015)

Tests used:
[1] = Anticancer activity against human HuH7 cells assessed as inhibition of cell growth at 10 uM incubated for 4 days by CCK8 assay; type: functional; settings: Huh-7, 96 h, read-out: GI
A549 = assay: Anticancer activity against human A549 cells assessed as inhibition of cell growth at 10 uM incubated for 4 days by CCK8 assay; type: functional; settings: A549, 96 h, read-out: GI
[2] = Anticancer activity against human HuH7 cells assessed as inhibition of cell growth incubated for 4 days by CCK8 assay; type: functional, cell-based; settings: Huh-7, 96 h
P388 = assay: Cytotoxicity against mouse P388 cells; type: functional; settings: read-out: ED50 (the source's name)

SMILES	inhibition of growth at 10 µM [1] [%]	inhibition of growth at 10 µM (A549) [%]	IC50 [2] [µM]	EC50 (P388) [µM]
CCCSc1nc(N/N=C/c2ccc([N+](=O)[O-])cc2)c2nnn([C@@H]3C[C@H](O)[C@@H](O)[C@H]3O)c2n1	68	67.6	11.7	
CCCSc1nc(N/N=C/c2ccc(O)cc2O)c2nnn([C@@H]3C[C@H](O)[C@@H](O)[C@H]3O)c2n1	38.3	33		
CCCSc1nc(N/N=C/c2ccc(Cl)cc2Cl)c2nnn([C@@H]3C[C@H](O)[C@@H](O)[C@H]3O)c2n1	51.2	41.6		
CCCSc1nc(N/N=C/c2cccc(O)c2)c2nnn([C@@H]3C[C@H](O)[C@@H](O)[C@H]3O)c2n1	36.5	21.4		
CCCSc1nc(N/N=C/c2ccc(OC)cc2)c2nnn([C@@H]3C[C@H](O)[C@@H](O)[C@H]3O)c2n1	57.3	69.2		
CCCSc1nc(N/N=C/c2ccccn2)c2nnn([C@@H]3C[C@H](O)[C@@H](O)[C@H]3O)c2n1	52.5	38.6		
O=c1[nH]cc(F)c(=O)[nH]1 [FLUOROURACIL]	78.7	64.5		
CCCSc1nc(N/N=C/c2ccccc2OC)c2nnn([C@@H]3C[C@H](O)[C@@H](O)[C@H]3O)c2n1	43.8	31.6		
CCCSc1nc(N/N=C/c2cccc([N+](=O)[O-])c2)c2nnn([C@@H]3C[C@H](O)[C@@H](O)[C@H]3O)c2n1	58.5	68		
CCCSc1nc(N/N=C/c2ccc(Cl)cc2)c2nnn([C@@H]3C[C@H](O)[C@@H](O)[C@H]3O)c2n1	47.8	34.2		
CCCSc1nc(N/N=C/c2ccccc2)c2nnn([C@@H]3C[C@H](O)[C@@H](O)[C@H]3O)c2n1	20.1	22.9		
CCCSc1nc(N/N=C/c2ccc(OC)c(OC)c2)c2nnn([C@@H]3C[C@H](O)[C@@H](O)[C@H]3O)c2n1	26.9	28.9		
Nc1ncnc2c1nnn2[C@@H]1C[C@H](CO)[C@H](O)[C@H]1O				0.38
CCCSc1nc(N/N=C/c2ccc(F)c(F)c2)c2nnn([C@@H]3C[C@H](O)[C@@H](O)[C@H]3O)c2n1	31.5	26.9		
CCCSc1nc(N/N=C/c2ccccc2O)c2nnn([C@@H]3C[C@H](O)[C@@H](O)[C@H]3O)c2n1	34.5	24.3		
CCCSc1nc(N/N=C/c2ccc(O)cc2)c2nnn([C@@H]3C[C@H](O)[C@@H](O)[C@H]3O)c2n1	43.8	32.3		
CCCSc1nc(N/N=C/c2cccs2)c2nnn([C@@H]3C[C@H](O)[C@@H](O)[C@H]3O)c2n1	50	38.8		
CCCSc1nc(N/N=C/c2ccccc2Cl)c2nnn([C@@H]3C[C@H](O)[C@@H](O)[C@H]3O)c2n1	37.7	30.5		
